In one assay the target is T1, mature myostatin (Mus musculus, UniProt O08689).
T1 sequence (O08689 268-376): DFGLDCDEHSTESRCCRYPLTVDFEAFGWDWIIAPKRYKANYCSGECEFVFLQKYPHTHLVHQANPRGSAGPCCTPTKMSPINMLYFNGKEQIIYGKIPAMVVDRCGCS
Kind of assay: ELISA-type test of direct interaction of biotinylated fibromodulin peptides with coated myostatin. It is filed as binding. The following applies: FIG. 3. An excerpt: The ELISA test (Enzyme Linked ImmunoSorbent Assay) is a test for detecting and/or assaying a protein present in a biological fluid. In the technique known as “sandwich” assay, the wells of a microtiter plate are covered with a capture antibody capable of binding specifically to the desired antigen. During this operation called “coating”, the capture antibody binds to the plastic of the wells by electrostatic interaction. The capture antibody ensures the specificity of the test. The solution to be tested is then deposited into the wells of the microtiter plate and, if the desired antigen is present, it will bind specifically to the capture antibody. A second antibody, the tracer antibody, capable of binding to the captured antigen is then added to the wells, and the unbound tracer antibodies are eliminated by rinsing. The tracer antibody is coupled to an enzyme catalyzing the formation of a colored product.
The principle of this technique was used to study the direct interaction of the mature myostatin with the peptides 69-101 Fmod Biotin and 69-101 Fmod Biotin mutated (see sequences below). For this, 3 μl of myostatin at a concentration of 100 ng/μl are taken up in 50 μl of carbonate buffer and added to each well of the assay plate (R&D Systems DY990). After an overnight incubation at 4° C., the plate is washed with 100 μl of PBS-Tween (0.05% Tween 20), then the blocking step to saturate non-specific sites is carried out for 2 hours at room temperature with 100 μl of PBS and 6% of milk per well. Five successive washes with 200 μl of PBS-Tween (0.05% Tween 20) are performed and increasing amounts of biotinylated fibromodulin peptides are then deposited (100 μl final in PBS) and the plate is incubated for 1 hour at 37° C. For the positive control, an antibody of goat anti-myostatin (≠AF788, R&D Systems), which was deposited in the control wells and incubated for 1 hour at 1/100th (0.1 mg/ml) was […]. The wells were then washed 5 times with PBS-Tween (0.05% Tween 20). To detect binding of the biotinylated peptides to MSTN, streptavidin-HRP (≠N100, Pierce) was used at 1/20,000th. was added to the wells. For the controls points with the goat anti-myostatin antibody, an HRP-marked (≠ab6885, Abcam) polyclonal secondary donkey anti-goat antibody was added (at 1/4000th)). After five washes, adding the peroxidase substrate, the TMB Substrate Reagent Set (Tetramehylbenzidine, OptEIA, ≠555214) allows the obtention of a colored reaction proportional to the quantity of HRP present in the wells. The reaction is stopped after 20 minutes by addition of sulfuric acid 2N, and the plate is read at 450 nm on a Discovery HT-R spectrophotometer (Bio-TEK).
Buffer Composition: 0.1 M carbonate buffer: 4.2 g NaHCO3, 1.78 g of […] in 500 ml of H20 MilliQ, pH 9,5. Storage at 4° C.
A general note: ELISA stands for enzyme-linked immunosorbent assay.

Assay [1] addresses T2, recombinant murine myostatin (Mus musculus, UniProt O08689).
T2 sequence (O08689 268-376): T1 sequence (O08689 268-376)
The assay is described as follows: Inhibition of myostatin activity, pGL3-(CAGA)12-Luc reporter in HEK293T cells. It is filed as cell-based. Conditions: 2.5 nM myostatin, FIG. 1 and 2. The source says: The plasmidic construction pGL3-(CAGA)12-firefly luciferase (notated pGL3-(CAGA)12-Luc) obtained by MTA of the Pr. Carl-Henrik Heldin (Ludwig Institute for Cancer Research, Sweden) contains 12 CAGA copies of the consensus SBE (Smad Binding Element) consensus sequence and allows to indirectly measure the binding of myostatin to its receptor. Indeed, when myostatin binds to the receptor Activin IIb, the Smad 3 and 4 proteins are activated and will bind to the 12 CAGA copies. The promoter of the cassette pGL3-(CAGA)12-Luc is thus activated, which results in luciferase production. The myostatin/Activin IIb binding can be followed, therefore, by measuring the luciferase.
The ability of the peptides to inhibit the in vitro activity of the myostatin has been evaluated on embryonic human kidney cells 293T by means of the pGL3-(CAGA)12-Luc construction. For this, 350,000 293T cells were placed per well in a 24-well plate. After 24 hours of culture, the cells were transfected with a mixture of 8 μl de PEI (PEI 25 kDa; Sigma) and 2 μg of plasmide pGL3-(CAGA)12-Luc/well. […] Twenty-four hours after transfection, 2.5 nM of recombinant murine myostatin, mixed or not mixed with various quantities of fibromodulin or lumican peptides were added to each well. […] Twenty-four hours after incubation, the cells were lysed, then collected to be assayed for luciferase activity and the quantity of protein.

The subject of assay [2] is mdx mice. The assay is described as follows: Comparative muscle hypertrophy 18 days after intramuscular injection of peptides in dystrophic mdx mice. It is filed as in vivo. The following applies: for Hypertrophy %: 18 days after IM injection, average of five mdx mice, TAG versus TAD; for increase in muscular hypertrophy, factor compared to decorin: day 18, mdx mice. As for the experimental part: (§1) Mdx mice (C57BL/10ScSn-DmD^max/J) from colonies maintained at Genethon. Mice aged at least six weeks were used. All experiments were performed in accordance with European ethical rules regarding the use of animals for experimental research.
(§2) Intramuscular injection is performed on animals anesthetized at the tibialis anterior muscle (TA). The injected volume was around 20-35 μl. The injection is performed in the middle of TA Left (TAG). An equal volume of NaCl 150 mM/15 μM ZnCl2 was systematically injected into the right anterior tibialis (TAD) to serve as a control. After a specified number of days after the injection, the TAD and TAG were taken after sacrificing the mice, which were weighed and frozen for histological studies.
The peptide fibromodulin (Fmod, SEQ ID NO: 2) and lumican (mLumican, SEQ ID NO: 5) were dissolved in water and stored at −80° C. For the injections, the preparation procedure is as follows: 24-40 hours before the injection, the desired quantity of peptide is removed from the stock solution and mixed with a solution of zinc chloride (ZnCl2) and 150 mM NaCl so as to have a final concentration of 15 μM of zinc. The peptide was stored at 4° C. until injection.
4/In vivo Comparative Study of Muscle Hypertrophy 18 Days after Injection of Dystrophic mdx Mice with Decorin Peptide (MdCN 31-71, SEQ ID NO: 75), Fibromodulin (mFmod 69-101) or lumican (mLum 30-62):
The TAD and TAG muscles were removed 18 days after injection of the peptides, and then weighed. The experiment was performed on five separate mice.

The subject of assay [3] is mdx mice. The assay is described as follows: Muscle weight on D20 after intramuscular injection into Tibialis Anterior of mdx mice. It is filed as in vivo. Conditions: D20, individual mdx mice. The protocol:
as §1, §2
The peptide fibromodulin (Fmod, SEQ ID NO: 2) and lumican (mLumican, SEQ ID NO: 5) were dissolved in water and stored at −80° C. For the injections, the preparation procedure is as follows: 24-40 hours before the injection, the desired quantity of peptide is removed from the stock solution and mixed with a solution of zinc chloride (ZnCl2) and 150 mM NaCl so as to have a final concentration of 15 μM of zinc. The peptide was stored at 4° C. until injection. […]
On D20, the mice were sacrificed and the weight of the TAG and TAD muscles was measured.

Results on five substances are retold here after US9175055B2, “Use of fibromodulin and lumican for increasing muscle mass” (ASSOCIATION FRANCAISE CONTRE LES MYOPATHIES, priority 2011, dated 2015).

Values joined by “and” are separate entries in the source; they are usually repeats but may differ in a detail not shown here. Equal values may be shown once.

Turning to “Biotine-PPPEPRDCPQEADAPPNFPTAMYADNRNLKYLP- CONH2 [mutated biotin mFmod peptide]”, the “interaction with myostatin (absorbence at 450 nm)” value (“interaction with myostatin” below) on mature myostatin (in the presence of zinc) was “no interaction is visible”.
As to “PPPEPRDCPQECDCPPNFPTAMYCDNRNLKYLP (69-101 mouse fibromodulin Fmod) [mFmod 69-101, fragment corresponding to residues 69-101 of murine fibromodulin]”, in the assay with mature myostatin (in the absence of zinc), the “interaction with myostatin” value was “no interaction is seen”. Moreover, the “amount of peptide from which a plateau of absorbence is obtained” value in the assay with mature myostatin (in the presence of zinc) is at least 4.2 µg. The “induction of the pCAGA-Luc promoter (inhibition of myostatin activity)” value in assay [1] is reported as “net inhibition of the promoter in a dose-dependent manner”. In the assay with mdx mice [2], the Hypertrophy % is 29.34 ± 15.76% and the “increase in muscular hypertrophy, factor compared to decorin” value came to 2.9. Besides, in the assay on mdx mice [3] (50 μg peptide + 15 μM ZnCl2 IM in left Tibialis Anterior), the “Weight of injected muscle (TAG)” value was 66.5 mg and 75.4 mg and 74.6 mg and 65.2 mg and 73.9 mg. Further, in the assay with mdx mice [3] (50 μg peptide + 15 μM ZnCl2 IM), the “Growth (TAG versus control TAD)” value is 22.24% and 5.31% and 19.94% and 5.33% and 12.31%.
Consider “mDCN 31-71: Decorin Peptide (MdCN 31-71, SEQ ID NO: 75), comparator from prior art WO 2010/106295 (DEASGIIPYDPDNPLISMCPYRCQCHLRVVQCSDLGLDKVP; 31-71 mouse decorin fragment) [reference compound]”, for which the Hypertrophy % with mdx mice [2] came out at 10.02 ± 8.3%.
Consider “YGQISPNCAPECNCPHSYPTAMYCDDLKLKSVP (30-62 mouse lumican) [mLum 30-62, fragment corresponding to residues 30 to 62 of murin lumican]”, for which the “induction of the pCAGA-Luc promoter (inhibition of myostatin activity)” value in assay [1] is listed as “net inhibition of the promoter in a dose-dependent manner”. Also, in the assay on mdx mice [2], the Hypertrophy % was found to be 37.26 ± 14.69% and the “increase in muscular hypertrophy, factor compared to decorin” value is 3.7.
Take “Biotine-PPPEPRDCPQECDCPPNFPTAMYCDNRNLKYLP-CONH2 [biotinylated mFmod 69-101]”: the “interaction with myostatin” value on mature myostatin (in the presence of zinc) is listed as “direct interaction takes place”.
